In data set [1] the target is T1, Soa1 (YIL166C) (Saccharomyces cerevisiae, UniProt P40445).
T1 construct: full-length, native SOA1 locus, in sulfur-starved S. cerevisiae cells
T1 sequence (P40445 1-542): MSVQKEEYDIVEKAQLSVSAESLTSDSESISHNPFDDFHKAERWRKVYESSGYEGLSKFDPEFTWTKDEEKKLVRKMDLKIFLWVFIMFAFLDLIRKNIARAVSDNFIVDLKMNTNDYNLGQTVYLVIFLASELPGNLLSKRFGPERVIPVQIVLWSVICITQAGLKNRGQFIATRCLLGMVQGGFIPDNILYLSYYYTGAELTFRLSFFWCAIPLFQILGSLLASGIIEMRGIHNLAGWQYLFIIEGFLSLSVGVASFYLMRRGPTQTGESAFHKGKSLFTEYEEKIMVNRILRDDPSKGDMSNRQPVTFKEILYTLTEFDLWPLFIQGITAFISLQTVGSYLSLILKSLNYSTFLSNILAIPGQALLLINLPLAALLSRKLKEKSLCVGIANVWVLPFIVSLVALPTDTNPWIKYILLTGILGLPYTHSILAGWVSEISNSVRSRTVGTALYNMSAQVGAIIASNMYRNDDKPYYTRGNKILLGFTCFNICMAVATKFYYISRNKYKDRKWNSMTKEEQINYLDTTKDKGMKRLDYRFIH
The data set can be described thus: growth rate of sul1 sul2 deletion strain (Monod fit), not direct uptake. The format is cell-based. The conditions noted are these: cell growth constant, not transport Km.

Substrate in data set [2]: O=S(=O)(O)O
As to the kind of experiment: radiolabelled uptake in sulfur-starved cells. The format is cell-based, Aspergillus nidulans. The conditions noted are these: pH 6.5 Bis-Tris, 30 °C, 1 min uptake, labelled compound ([35S]), H+ symport, sul1 sul2 soa1 deletion background.

On to `O=S(O)O` [sulfite], for which the “Ks (half-velocity constant for growth)” value in data set [1] (pH 6.5, sulfite as sole sulfur source) is 67.4 ± 8.3 µM. Turning to `O=S(=O)(O)S` [thiosulfate], the “Ks (half-velocity constant for growth)” value in data set [1] (pH 6.5, thiosulfate as sole sulfur source) stood at 75.8 ± 6.0 µM.

B1: AstA (Aspergillus nidulans) (protein)
chain: MADYKSTNPTVENKDDVAVPEYVIDWTLEEETKAKRKLDLMIMPILTLGFFCLQLDRGNMANAITDNFMEDVGINQDQFNVGQQMLSLGIVLTEIPSNMILYRVGPGKWLTLQLFLFGIVSTFQAFQRGYGAFIATRFLLGITESGFIPGGLWTLSTWYTRDETAKRVMIFYFGNQIGQASAKLLAYGILHMRGVGGQSGWFWLFALMGSFTVFSGFIFGFFLLDSFKNPHSTFLPKMSRFTERELHILQTRVLLDDPMKGKKKRKIGLGAFKRAFTDWRIWVHFLITLSNNGPQRAFDTYAPSIVTSFGFGRLVSNAMAAVGLFLQVPVSFAFSWVSDHYNRRGETVMLGFFCHLLGYIFNRTFTDVNLRGVRYFGVVWTQTFGTFSHPLNIAWLSLTCKDSEQRALAMAGVIMNANIAGIYGAQIFRSDDKPLYRRGFSVALSVLAVGLVLAIVRYVDTMIHRRRKLQAVEDGSEQDTDADHKLT
notes: full-length, codon-optimized synthetic gene in SOA1 locus of S. cerevisiae sul1 sul2 soa1 deletion strain
As a reminder, the Km is the concentration of substrate that gives half-maximal velocity. For B1, in data set [2], the Km is 7.50 ± 0.53 µM.
